What all share (test): NADH fluorescence
Common to all, as to type: biochemical
What all share (details): 1 mM NAD+, 50 mM Tris pH 8.0, 150 mM NaCl, 0.1% Triton X-100

One assay has as its target T1, ALDH3A1 (Homo sapiens, UniProt P30838).
T1 sequence (P30838 1-453): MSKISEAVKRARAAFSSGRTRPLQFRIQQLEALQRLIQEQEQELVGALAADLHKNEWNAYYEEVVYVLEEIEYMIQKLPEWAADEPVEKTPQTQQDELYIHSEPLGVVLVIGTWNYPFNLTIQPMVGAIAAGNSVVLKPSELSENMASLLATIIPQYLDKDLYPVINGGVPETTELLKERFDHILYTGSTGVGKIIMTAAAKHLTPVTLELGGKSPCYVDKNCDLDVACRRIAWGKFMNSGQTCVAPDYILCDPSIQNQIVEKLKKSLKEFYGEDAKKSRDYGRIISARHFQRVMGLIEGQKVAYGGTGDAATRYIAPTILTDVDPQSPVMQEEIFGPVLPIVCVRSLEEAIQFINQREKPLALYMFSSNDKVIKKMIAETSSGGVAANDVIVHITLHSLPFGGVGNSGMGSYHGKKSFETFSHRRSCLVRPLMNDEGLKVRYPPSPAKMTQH

The target of assay [1] is T2, Hfd1p^CΔ25 (MBP-Hfd1^CΔ25) (Saccharomyces cerevisiae, UniProt Q04458).
T2 sequence (Q04458 1-507): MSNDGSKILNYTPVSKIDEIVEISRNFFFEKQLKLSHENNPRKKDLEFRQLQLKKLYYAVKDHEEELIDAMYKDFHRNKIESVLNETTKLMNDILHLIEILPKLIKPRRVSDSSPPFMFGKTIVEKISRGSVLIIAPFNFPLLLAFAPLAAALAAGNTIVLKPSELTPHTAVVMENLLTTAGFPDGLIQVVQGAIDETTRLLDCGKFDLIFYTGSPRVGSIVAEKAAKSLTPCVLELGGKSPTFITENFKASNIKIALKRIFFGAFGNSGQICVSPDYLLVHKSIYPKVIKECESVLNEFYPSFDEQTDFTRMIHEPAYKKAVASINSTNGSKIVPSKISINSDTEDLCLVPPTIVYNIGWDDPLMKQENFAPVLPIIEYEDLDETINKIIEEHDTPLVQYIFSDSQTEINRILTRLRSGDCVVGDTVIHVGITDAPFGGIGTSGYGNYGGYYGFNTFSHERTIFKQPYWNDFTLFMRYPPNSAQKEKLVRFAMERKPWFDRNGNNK

A further assay deals with ALDH3A2^CΔ25 (FALDH) (Homo sapiens, UniProt P51648).

The structures appear in SMILES notation.

We go through 2 compounds from PMC5101133 (Nature biotechnology, 2016).

Sequence of ALDH3A2^CΔ25 (FALDH) (P51648 1-460, stated change not applied): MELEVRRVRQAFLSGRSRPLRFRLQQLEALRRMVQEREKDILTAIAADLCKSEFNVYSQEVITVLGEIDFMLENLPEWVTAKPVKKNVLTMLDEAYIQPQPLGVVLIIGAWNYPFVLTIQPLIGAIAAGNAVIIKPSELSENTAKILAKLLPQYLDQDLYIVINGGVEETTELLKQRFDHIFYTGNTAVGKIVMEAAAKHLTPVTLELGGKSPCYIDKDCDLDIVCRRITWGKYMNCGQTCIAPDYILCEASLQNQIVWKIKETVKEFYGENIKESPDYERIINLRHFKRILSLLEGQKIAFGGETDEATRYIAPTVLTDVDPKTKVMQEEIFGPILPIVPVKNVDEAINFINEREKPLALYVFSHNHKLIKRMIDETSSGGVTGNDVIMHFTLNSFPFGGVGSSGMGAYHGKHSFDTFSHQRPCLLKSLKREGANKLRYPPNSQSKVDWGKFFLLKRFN

Take `O=Cc1ccc(O)cc1` [4-HBz]: the KM result was “Hfd1p and ALDH3A1 show a preference for 4-HBz” at ALDH3A1; “WT Hfd1p catalyzes NAD^+-dependent dehydrogenation of 4-HBz” in assay [1].

For the compound `CCCCCCCCCCCCCCCC=O` [hexadecanal], the KM result on ALDH3A2^CΔ25 (FALDH) is listed as “ALDH3A2 shows a strong substrate preference for hexadecanal over 4-HBz”; in assay [1], “we observed Hfd1p activity in vitro with hexadecanal, similar to that observed with 4-HBz”.
